Holding throughout (assay): relative viability (nuclei count vs DMSO), 5 days (fraction); higher = more cells survive
Compound in assay [1]: CC1=C(C(=NN1)C)CC2=C(C3=C(S2)N(C(=O)N(C3=O)C)CC(C)C)C(=O)N4C[C@@H](CO4)O + CC1(C)CCC(c2ccc(Cl)cc2)=C(CN2CCN(c3ccc(C(=O)NS(=O)(=O)c4ccc(N[C@H](CCN5CCOCC5)CSc5ccccc5)c(S(=O)(=O)C(F)(F)F)c4)cc3)CC2)C1 [Navitoclax] (partner 0.5 µM)
In outline:
(§1)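 Each reported value is a median over duplicate plates. It expresses relative viability: treated-well nuclei count divided by vehicle-well nuclei count. Lung cancer cell lines in 1536-well plates were dosed by pin tool a day after seeding, alone with one drug or with a fixed anchor-drug dose plus five library-drug doses (not always all listed) in √10 steps, and nuclei were counted after 5 days.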

Compound in assay [2]: Cc1ccccc1C(C(=O)NC1CCCCC1)N(C(=O)Cn1ccnc1C)c1cccc(F)c1 [IDH-C35] + Cc1nc(Nc2ncc(C(=O)Nc3c(C)cccc3Cl)s2)cc(N2CCN(CCO)CC2)n1 [Dasatinib] (partner 0.075 µM)
In outline:
as §1

Compound in assay [3]: CC1=C(C(=NN1)C)CC2=C(C3=C(S2)N(C(=O)N(C3=O)C)CC(C)C)C(=O)N4C[C@@H](CO4)O + CS(=O)(=O)N1CCN(Cc2cc3nc(-c4cccc5[nH]ncc45)nc(N4CCOCC4)c3s2)CC1 [Pictilisib] (partner 1 µM)
In outline: as §1

Compound in assay [4]: CC1=C(C(=NN1)C)CC2=C(C3=C(S2)N(C(=O)N(C3=O)C)CC(C)C)C(=O)N4C[C@@H](CO4)O + O=C(c1cc(Cc2n[nH]c(=O)c3ccccc23)ccc1F)N1CCN(C(=O)C2CC2)CC1 [Olaparib] (partner 8 µM)
The gist of the method: as §1

For the cell line UMC-11, the relative viability is 0.31 in assay [1] (first compound 0.0025 µM); 0.215 in assay [1] (first compound 0.007906 µM); 0.233 in assay [1] (first compound 0.025 µM); 0.211 in assay [1] (first compound 0.07906 µM); 0.199 in assay [1] (first compound 0.25 µM); 0.416 in assay [2] (first compound 0.08 µM). Besides, the relative viability in assay [2] (first compound 0.253 µM) was found to be 0.472; in assay [2] (first compound 0.8 µM) it was 0.474; in assay [2] (first compound 2.53 µM), 0.532; in assay [2] (first compound 8 µM), 0.443; in assay [3] (first compound 0.0025 µM) it was 0.917; in assay [3] (first compound 0.007906 µM) it was 0.673. The relative viability in assay [3] (first compound 0.025 µM) came to 0.785; in assay [3] (first compound 0.07906 µM) it was 0.921; in assay [3] (first compound 0.25 µM) it was 0.907; in assay [4] (first compound 0.0025 µM), 0.386; in assay [4] (first compound 0.007906 µM) it was 0.358; in assay [4] (first compound 0.025 µM), 0.383. Further, the figures for the relative viability in assay [4] (first compound 0.07906 µM) and in assay [4] (first compound 0.25 µM) were 0.456 and 0.957, respectively.

Source of the values: the supplement of paper PMC10307832.
